# US10851102B2, “Imidazole and triazole containing bicyclic compounds as JAK inhibitors” (THERAVANCE BIOPHARMA R&D IP, LLC, priority 2019, dated 2020)
# Columns and labels:
# [1] = target: Tyk2 (Homo sapiens (Human), UniProt P29597); experiment: Biochemical JAK and Tyk2 kinase assays (LanthaScreen): Tyk2; conditions: 1 h pre-incubation, ATP at Km; pIC50 converted to pKi by Cheng-Prusoff
# Procedure: (§1) Assay 1: Biochemical JAK and Tyk2 Kinase Assays
# (§2) A panel of four LanthaScreen JAK biochemical assays (JAK1, 2, 3 and Tyk2) were carried in a common kinase reaction buffer (50 mM HEPES, pH 7.5, 0.01% Brij-35, 10 mM MgCl2, and 1 mM EGTA). Recombinant GST-tagged JAK enzymes and a GFP-tagged STAT1 peptide substrate were obtained from Life Technologies.
# (§3) Serially or discretely diluted compounds were pre-incubated with each of the four JAK enzymes and the substrate in white 384-well microplates (Corning) at ambient temperature for 1 h. ATP was subsequently added to initiate the kinase reactions in 10 μL total volume, with 1% DMSO. […] Kinase reactions were allowed to proceed for 1 hour at ambient temperature before a 10 μL preparation of EDTA (10 mM final concentration) and Tb-anti-pSTAT1 (pTyr701) antibody (Life Technologies, 2 nM final concentration) in TR-FRET dilution buffer (Life Technologies) was added. The plates were allowed to incubate at ambient temperature for 1 h before being read on the EnVision reader (Perkin Elmer). Emission ratio signals (520 nm/495 nm) were recorded and utilized to calculate the percent inhibition values based on DMSO and background controls.
# (§4) For dose-response analysis, percent inhibition data were plotted vs. compound concentrations, and IC50 values were determined from a 4-parameter robust fit model with the Prism software (GraphPad Software). Results were expressed as pIC50 (negative logarithm of IC50) and subsequently converted to pKi (negative logarithm of dissociation constant, Ki) using the Cheng-Prusoff equation.
# [2] = target: JAK1 (Homo sapiens (Human), UniProt P23458); experiment: Biochemical JAK and Tyk2 kinase assays (LanthaScreen): JAK1; conditions: 1 h pre-incubation, ATP at Km; pIC50 converted to pKi by Cheng-Prusoff
# Procedure: as §1, §2, §3, §4
# [3] = target: JAK3 (Homo sapiens (Human), UniProt P52333); experiment: Biochemical JAK and Tyk2 kinase assays (LanthaScreen): JAK3; conditions: for Ki: read-out: JAK 3 (pKi) (converted); for JAK3 (pKi)-JAK1 (pKi): difference of pKi values, selectivity JAK3 over JAK1
# Procedure: as §1, §2, §3, §4
# [4] = tested on: IL-2 stimulated pSTAT5 in Tall-1 T cells (JAK3); experiment: Cellular JAK3 potency assay: inhibition of IL-2 stimulated pSTAT5 in Tall-1 T cells; type: cell-based; conditions: IL-2 300 ng/ml, pSTAT5 AlphaLisa, Tall-1 human T cell line; read-out: Tall-1 (pIC50) (converted)
# Procedure: Assay 2: Cellular JAK3 Potency Assay: Inhibition of IL-2 Stimulated pSTAT5 in Tall-1 T Cells
# The potency of test compounds for inhibition of interleukin-2 (IL-2) stimulated STATS phosphorylation was measured in the Tall-1 human T cell line (DSMZ) using AlphaLisa. Because IL-2 signals through JAK3, this assay provides a measure of JAK3 cellular potency.
# Phosphorylated STATS was measured via the AlphaLISA SureFire Ultra pSTAT5 (Tyr694/699) kit (PerkinElmer).
# Human T cells from the Tall-1 cell line were cultured in a 37° C., 5% CO2 humidified incubator in RPMI (Life Technologies) supplemented with 15% Heat Inactivated Fetal Bovine Serum (FBS, Life Technologies), 2 mM Glutamax (Life Technologies), 25 mM HEPES (Life Technologies) and 1× Pen/Strep (Life Technologies). Compounds were serially diluted in DMSO and dispensed acoustically to empty wells. Assay media (phenol red-free DMEM (Life Technologies) supplemented with 10% FBS (ATCC)) was dispensed (4 μL/well) and plates shaken at 900 rpm for 10 mins. Cells were seeded at 45,000 cells/well in assay media (4 μL/well), and incubated at 37° C., 5% CO2 for 1 hour, followed by the addition of IL-2 (R&D Systems; final concentration 300 ng/ml) in pre-warmed assay media ([…]) for 30 minutes. After cytokine stimulation, cells were lysed with 6 ul of 3× AlphaLisa Lysis Buffer (PerkinElmer) containing 1× PhosStop and Complete tablets (Roche). The lysate was shaken at 900 rpm for 10 minutes at room temperature (RT). Phosphorylated STATS was measured via the pSTAT5 AlphaLisa kit (PerkinElmer). Freshly prepared acceptor bead mixture was dispensed onto lysate (5 μL) under green filtered <100 lux light. Plates were shaken at 900 rpm for 2 mins, briefly spun down, and incubated for 2 hrs at RT in the dark. Donor beads were dispensed (5 μL) under green filtered <100 lux light. Plates were shaken at 900 rpm for 2 minutes, briefly spun down, and incubated overnight at RT in the dark. Luminescence was measured with excitation at 689 nm and emission at 570 nm using an EnVision plate reader (PerkinElmer) under green filtered <100 lux light.
# To determine the inhibitory potency of test compounds in response to IL-2, the average emission intensity of beads bound to pSTAT5 was measured in a human T cell line. IC50 values were determined from analysis of the inhibition curves of signal intensity versus compound concentration. Data are expressed as pIC50 (negative decadic logarithm IC50) values (mean±standard deviation).
# [5] = target: JAK2 (Homo sapiens (Human), UniProt O60674); experiment: Biochemical JAK and Tyk2 kinase assays (LanthaScreen): JAK2; conditions: 1 h pre-incubation, ATP at Km; pIC50 converted to pKi by Cheng-Prusoff
# Procedure: as §1, §2, §3, §4
# [6] = 1 h pre-incubation, ATP at Km, pIC50 converted to pKi by Cheng-Prusoff
# Sequence of JAK2 (O60674 whole entry): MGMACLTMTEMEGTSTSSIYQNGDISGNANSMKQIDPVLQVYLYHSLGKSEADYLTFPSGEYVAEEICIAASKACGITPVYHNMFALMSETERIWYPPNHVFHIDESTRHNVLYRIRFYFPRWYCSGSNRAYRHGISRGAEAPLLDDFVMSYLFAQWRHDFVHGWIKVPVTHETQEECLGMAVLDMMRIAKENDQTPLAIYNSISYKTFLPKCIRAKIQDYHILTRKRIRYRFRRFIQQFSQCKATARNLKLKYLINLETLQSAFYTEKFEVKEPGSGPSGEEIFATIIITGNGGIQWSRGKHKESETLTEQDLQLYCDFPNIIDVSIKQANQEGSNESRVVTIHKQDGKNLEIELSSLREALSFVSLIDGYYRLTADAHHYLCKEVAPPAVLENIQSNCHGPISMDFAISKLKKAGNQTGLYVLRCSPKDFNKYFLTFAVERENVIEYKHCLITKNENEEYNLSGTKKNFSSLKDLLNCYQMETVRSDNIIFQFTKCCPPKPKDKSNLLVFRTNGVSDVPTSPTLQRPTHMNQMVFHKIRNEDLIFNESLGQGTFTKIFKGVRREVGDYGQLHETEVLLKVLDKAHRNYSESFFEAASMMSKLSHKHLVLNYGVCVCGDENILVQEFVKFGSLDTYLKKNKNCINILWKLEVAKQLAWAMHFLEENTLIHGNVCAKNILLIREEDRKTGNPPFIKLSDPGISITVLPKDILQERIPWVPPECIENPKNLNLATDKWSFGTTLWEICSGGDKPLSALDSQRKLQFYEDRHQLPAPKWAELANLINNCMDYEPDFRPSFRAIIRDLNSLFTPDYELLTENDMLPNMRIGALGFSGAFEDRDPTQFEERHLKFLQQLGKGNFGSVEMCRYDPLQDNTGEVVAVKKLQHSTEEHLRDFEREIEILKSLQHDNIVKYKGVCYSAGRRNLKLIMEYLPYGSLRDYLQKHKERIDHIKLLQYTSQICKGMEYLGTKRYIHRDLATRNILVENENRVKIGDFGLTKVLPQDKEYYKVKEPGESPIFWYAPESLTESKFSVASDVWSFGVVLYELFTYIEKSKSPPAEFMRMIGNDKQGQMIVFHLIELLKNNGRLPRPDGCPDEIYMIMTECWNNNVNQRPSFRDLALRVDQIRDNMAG
# Sequence of JAK3 (P52333 whole entry): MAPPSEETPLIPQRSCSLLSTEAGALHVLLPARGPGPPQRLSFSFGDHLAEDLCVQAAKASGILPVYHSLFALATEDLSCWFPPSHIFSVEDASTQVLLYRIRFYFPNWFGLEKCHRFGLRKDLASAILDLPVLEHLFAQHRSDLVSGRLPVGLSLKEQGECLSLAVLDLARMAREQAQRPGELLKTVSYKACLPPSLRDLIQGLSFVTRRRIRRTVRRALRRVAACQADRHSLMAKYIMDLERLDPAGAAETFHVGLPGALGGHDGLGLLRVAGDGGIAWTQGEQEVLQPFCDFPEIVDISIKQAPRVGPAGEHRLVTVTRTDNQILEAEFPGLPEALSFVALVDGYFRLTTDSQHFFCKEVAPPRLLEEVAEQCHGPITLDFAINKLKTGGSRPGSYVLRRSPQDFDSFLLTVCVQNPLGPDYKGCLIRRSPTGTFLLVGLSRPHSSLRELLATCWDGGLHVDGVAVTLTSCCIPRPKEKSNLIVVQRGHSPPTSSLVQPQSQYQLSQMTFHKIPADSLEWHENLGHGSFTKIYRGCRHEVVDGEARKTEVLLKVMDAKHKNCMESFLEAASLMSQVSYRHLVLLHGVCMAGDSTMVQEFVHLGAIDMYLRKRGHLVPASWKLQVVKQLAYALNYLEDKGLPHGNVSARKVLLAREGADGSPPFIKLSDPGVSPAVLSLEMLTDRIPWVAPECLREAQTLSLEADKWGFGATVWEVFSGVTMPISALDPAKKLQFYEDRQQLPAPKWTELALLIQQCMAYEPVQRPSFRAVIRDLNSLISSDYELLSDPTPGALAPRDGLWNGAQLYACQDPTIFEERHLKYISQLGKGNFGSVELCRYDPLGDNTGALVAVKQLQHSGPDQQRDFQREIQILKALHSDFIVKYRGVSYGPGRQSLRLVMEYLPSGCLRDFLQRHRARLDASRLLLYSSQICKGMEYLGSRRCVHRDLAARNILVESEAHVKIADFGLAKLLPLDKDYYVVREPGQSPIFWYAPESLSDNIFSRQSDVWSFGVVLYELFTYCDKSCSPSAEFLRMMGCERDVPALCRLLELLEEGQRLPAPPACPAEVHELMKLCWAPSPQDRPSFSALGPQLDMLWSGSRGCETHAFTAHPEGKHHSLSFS
# Sequence of Tyk2 (P29597 whole entry): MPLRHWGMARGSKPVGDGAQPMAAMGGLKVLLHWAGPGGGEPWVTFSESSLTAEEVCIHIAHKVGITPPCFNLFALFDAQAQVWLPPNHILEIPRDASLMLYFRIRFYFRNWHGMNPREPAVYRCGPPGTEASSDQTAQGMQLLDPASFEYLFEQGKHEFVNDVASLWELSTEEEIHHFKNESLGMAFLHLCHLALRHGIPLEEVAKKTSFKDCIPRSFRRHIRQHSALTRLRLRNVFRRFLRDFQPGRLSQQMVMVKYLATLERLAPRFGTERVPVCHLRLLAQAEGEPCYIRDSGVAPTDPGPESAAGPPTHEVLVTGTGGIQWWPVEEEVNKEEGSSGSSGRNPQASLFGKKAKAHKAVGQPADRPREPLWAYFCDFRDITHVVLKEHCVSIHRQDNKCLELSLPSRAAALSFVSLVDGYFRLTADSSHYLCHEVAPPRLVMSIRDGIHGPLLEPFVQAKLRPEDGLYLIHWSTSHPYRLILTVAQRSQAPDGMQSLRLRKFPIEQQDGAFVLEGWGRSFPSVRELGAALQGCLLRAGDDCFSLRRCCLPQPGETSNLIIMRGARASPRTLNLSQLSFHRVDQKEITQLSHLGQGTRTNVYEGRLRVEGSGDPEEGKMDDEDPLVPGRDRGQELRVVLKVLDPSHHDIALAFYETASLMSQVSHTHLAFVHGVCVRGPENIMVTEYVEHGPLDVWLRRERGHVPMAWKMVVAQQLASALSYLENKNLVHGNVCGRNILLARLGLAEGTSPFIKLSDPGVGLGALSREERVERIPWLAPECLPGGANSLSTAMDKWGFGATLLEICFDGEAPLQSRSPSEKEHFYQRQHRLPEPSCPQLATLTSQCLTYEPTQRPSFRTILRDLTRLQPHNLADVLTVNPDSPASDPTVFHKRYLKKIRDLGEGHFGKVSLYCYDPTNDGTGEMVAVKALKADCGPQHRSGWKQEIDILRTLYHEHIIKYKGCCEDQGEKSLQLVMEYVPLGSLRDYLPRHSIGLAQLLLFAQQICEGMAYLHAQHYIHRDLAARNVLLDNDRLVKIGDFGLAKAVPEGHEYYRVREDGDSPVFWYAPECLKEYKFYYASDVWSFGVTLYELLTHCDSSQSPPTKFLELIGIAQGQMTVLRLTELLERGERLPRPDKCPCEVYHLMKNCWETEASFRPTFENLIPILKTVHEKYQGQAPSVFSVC
# Sequence of JAK1 (P23458 whole entry): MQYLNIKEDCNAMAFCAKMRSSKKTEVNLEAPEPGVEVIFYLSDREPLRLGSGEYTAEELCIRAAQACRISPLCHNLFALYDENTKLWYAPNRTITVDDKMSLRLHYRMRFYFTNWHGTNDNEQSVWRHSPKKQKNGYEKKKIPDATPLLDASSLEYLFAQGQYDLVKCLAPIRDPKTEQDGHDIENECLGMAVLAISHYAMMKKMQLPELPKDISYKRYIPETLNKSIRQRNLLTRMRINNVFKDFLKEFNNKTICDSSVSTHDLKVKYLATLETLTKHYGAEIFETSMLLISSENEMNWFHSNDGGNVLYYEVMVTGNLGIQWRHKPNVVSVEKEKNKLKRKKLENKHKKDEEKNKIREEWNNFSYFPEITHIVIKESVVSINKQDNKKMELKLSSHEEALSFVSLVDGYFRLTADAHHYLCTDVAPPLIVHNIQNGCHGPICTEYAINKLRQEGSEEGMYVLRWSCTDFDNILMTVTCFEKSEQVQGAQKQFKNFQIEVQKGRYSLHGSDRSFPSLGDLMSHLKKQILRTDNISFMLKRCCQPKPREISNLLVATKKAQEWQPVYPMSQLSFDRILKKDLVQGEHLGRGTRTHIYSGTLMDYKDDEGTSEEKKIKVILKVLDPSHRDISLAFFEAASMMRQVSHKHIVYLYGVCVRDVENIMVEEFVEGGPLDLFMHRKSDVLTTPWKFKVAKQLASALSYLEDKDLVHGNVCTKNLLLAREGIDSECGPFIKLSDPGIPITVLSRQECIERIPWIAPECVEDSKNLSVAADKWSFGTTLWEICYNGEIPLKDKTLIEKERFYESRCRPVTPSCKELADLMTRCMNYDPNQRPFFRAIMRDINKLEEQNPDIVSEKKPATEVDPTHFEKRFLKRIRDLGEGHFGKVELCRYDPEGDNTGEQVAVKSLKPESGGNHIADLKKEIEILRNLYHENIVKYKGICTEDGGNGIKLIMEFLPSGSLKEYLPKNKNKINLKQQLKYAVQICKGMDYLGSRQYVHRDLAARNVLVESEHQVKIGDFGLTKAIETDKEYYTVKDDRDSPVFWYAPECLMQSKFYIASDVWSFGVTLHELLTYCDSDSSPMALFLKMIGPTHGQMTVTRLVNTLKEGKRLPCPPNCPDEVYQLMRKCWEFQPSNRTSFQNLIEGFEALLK
Structure (SMILES),Tyk 2 (pKi) [1],JAK 1 (pKi) [2],"Ki [3, 6]",JAK3 (pKi)-JAK1 (pKi) [3],IC50 [4],JAK 2 (pKi) [5],"JAK 3 (pKi) [3, 6]"
"C=CC(=O)N1CC[C@H](Oc2cc(-c3ccc(O)cc3)cn3cncc23)C1 [Example 1, (S)-1-(3-((6-(4-hydroxyphenyl)imidazo[1,5-a]pyridin-8-yl)oxy)pyrrolidin-1-yl)prop-2-en-1-one]",E (E represents a pKi value of 7 or below (Ki of 100 nM or above)),E (E represents a pKi value of 7 or below (Ki of 100 nM or above)),0.1 to 1 nM,A (A represents a value of 3 or above),200 to 1000 nM,E (E represents a pKi value of 7 or below (Ki of 100 nM or above)),
"C=CC(=O)N1CC2(CCC2Oc2cc(-c3ccc(O)cc3)cn3cncc23)C1 (centres unmarked) [Example 3, 1-(5-((6-(4-hydroxyphenyl)imidazo[1,5-a]pyridin-8-yl)oxy)-2-azaspiro[3.3]heptan-2-yl)prop-2-en-1-one]",E (E represents a pKi value of 7 or below (Ki of 100 nM or above)),E (E represents a pKi value of 7 or below (Ki of 100 nM or above)),0.1 to 1 nM,A (A represents a value of 3 or above),31.6 to 200 nM,E (E represents a pKi value of 7 or below (Ki of 100 nM or above)),
"C=CC(=O)N1CCC(Nc2cc(-c3ccc(O)cc3)cn3cncc23)CC1 [Example 4, 1-(4-((6-(4-hydroxyphenyl)imidazo[1,5-a]pyridin-8-yl)amino)piperidin-1-yl)prop-2-en-1-one]",E (E represents a pKi value of 7 or below (Ki of 100 nM or above)),E (E represents a pKi value of 7 or below (Ki of 100 nM or above)),1 to 10 nM,B (B represents a value of 2.3 to 3),,E (E represents a pKi value of 7 or below (Ki of 100 nM or above)),
CN(C)C/C=C/C(=O)N1CC(COc2cc(-c3ccc(O)c(Cl)c3)cn3cncc23)C1 [Example 23],E (E represents a pKi value of 7 or below (Ki of 100 nM or above)),E (E represents a pKi value of 7 or below (Ki of 100 nM or above)),0.1 to 1 nM,A (A represents a value of 3 or above),200 to 1000 nM,E (E represents a pKi value of 7 or below (Ki of 100 nM or above)),
C=CC(=O)N1CC[C@H](COc2cc(-c3ccc(O)cc3)cn3cncc23)C1 [Example 26],E (E represents a pKi value of 7 or below (Ki of 100 nM or above)),E (E represents a pKi value of 7 or below (Ki of 100 nM or above)),0.1 to 1 nM,A (A represents a value of 3 or above),200 to 1000 nM,E (E represents a pKi value of 7 or below (Ki of 100 nM or above)),
C=CC(=O)N1CCC[C@H](Oc2cc(-c3ccc(O)cc3)cn3cncc23)C1 [Example 27],E (E represents a pKi value of 7 or below (Ki of 100 nM or above)),E (E represents a pKi value of 7 or below (Ki of 100 nM or above)),0.1 to 1 nM,A (A represents a value of 3 or above),200 to 1000 nM,E (E represents a pKi value of 7 or below (Ki of 100 nM or above)),
C=CC(=O)N1CC2(CC(Oc3cc(-c4ccc(O)cc4)cn4cncc34)C2)C1 [Example 37],E (E represents a pKi value of 7 or below (Ki of 100 nM or above)),E (E represents a pKi value of 7 or below (Ki of 100 nM or above)),0.1 to 1 nM,A (A represents a value of 3 or above),200 to 1000 nM,E (E represents a pKi value of 7 or below (Ki of 100 nM or above)),
C=CC(=O)N1CC[C@@H](Oc2cc(-c3ccc(O)cc3)cn3cncc23)C[C@@H]1C [Example 39],E (E represents a pKi value of 7 or below (Ki of 100 nM or above)),E (E represents a pKi value of 7 or below (Ki of 100 nM or above)),,A (A represents a value of 3 or above),31.6 to 200 nM,E (E represents a pKi value of 7 or below (Ki of 100 nM or above)),A (A represents a pKi value≥10 (Ki≤0.1 nM))
